Assay results reported in PMC5655428, “Discovery and pharmacological characterization of a new class of prolyl-tRNA synthetase inhibitor for anti-fibrosis therapy” (PLoS ONE, 2017).

Assays:
human PRS = target: T1, human PRS (Homo sapiens, UniProt P07814); experiment: ATP/PPi exchange assay (PRS enzymatic inhibition); assay type: biochemical; settings: ATP/PPi exchange method; duplicate
T1 construct: His-Avi-tag (N); made in house; host or cells: E. coli BL21 (DE3)
T1 sequence (P07814 998-1512): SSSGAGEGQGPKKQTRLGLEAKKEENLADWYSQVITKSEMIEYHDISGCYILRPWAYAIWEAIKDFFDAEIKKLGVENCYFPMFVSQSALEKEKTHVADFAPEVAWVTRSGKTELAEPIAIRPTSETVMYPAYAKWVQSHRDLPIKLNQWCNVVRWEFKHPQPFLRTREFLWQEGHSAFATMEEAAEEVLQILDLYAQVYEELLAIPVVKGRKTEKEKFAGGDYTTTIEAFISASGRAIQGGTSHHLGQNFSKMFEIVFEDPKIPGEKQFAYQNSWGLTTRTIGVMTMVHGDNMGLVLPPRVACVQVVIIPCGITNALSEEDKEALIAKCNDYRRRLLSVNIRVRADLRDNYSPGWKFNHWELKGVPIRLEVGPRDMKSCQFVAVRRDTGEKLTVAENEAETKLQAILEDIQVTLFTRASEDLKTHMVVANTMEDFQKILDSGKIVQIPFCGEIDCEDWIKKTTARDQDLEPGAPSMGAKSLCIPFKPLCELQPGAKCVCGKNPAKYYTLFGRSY
Experimental: The expression plasmid of human PRS (residues 998–1512, Genbank Accession No. NM_152621) was constructed in a pET21a vector (Novagen, San Diego, CA, USA) to express in E.coli BL21 (DE3) (Nippongene, Tokyo, Japan) as a fusion protein with His-Avi-tag at N-terminus. After culture, the cells were homogenized in a lysis buffer containing 50 mM Tris-HCl (pH 8.0 at 25°C), 150 mM NaCl, 5 U/mL Benzonase, 20 mM imidazole, and 1 mM DTT. Cell homogenates were centrifuged, and the supernatant was applied to NiNTA purification, followed by gel filtration with Superdex200. Proteins were stored in a buffer containing 50 mM Tris-HCl (pH 8.0 at 25°C), 150 mM NaCl, 10% glycerol, and 1 mM DTT at -80°C. The protein concentration was determined with the BCA Protein Assay Kit (Pierce Biotechnology, Inc., Rockford, IL, USA) according to the instruction manual.
The test compounds were dissolved in 5 μL of an assay buffer [50 mM Tris-HCl (pH 7.5), 20 mM KCl, 1 mM DTT, and 0.01% Tween 20] and incubated with 5 μL of 40 nM PRS enzyme dissolved in the assay buffer supplemented with 40 mM MgCl2 for 60 minutes. […] Radioactivities were measured using the TopCount detector (PerkinElmer).
The inhibitory activity was calculated as follows: % inhibition = (A—B) / (A—C) × 100, where, A, B, and C are signals with vehicle, test sample, and without reaction, respectively. […]

[1] = system: TGF-β-induced fibrotic genes expression in mouse ear skin; experiment: TGF-β-induced fibrotic gene expression in mouse ear, topical application; assay type: in vivo; settings: for expression of fibrosis-related genes (Col1a1, Col1a2, α-Sma) in mouse ear: topical cream daily, 1 h before TGF-β 500 ng intradermal x5, T-3833261 0.01-0.1%, HF 0.01%
Experimental: Standard chow diet and water were available ad libitum.
A vehicle without compounds was applied to control mice. […] Topical application of compound was continued for 7 days.
Total RNA was isolated from in vivo samples using ISOGEN II (Nippongene) according to the manufacturer's instructions. In vitro RNA samples were prepared as mentioned above. High Capacity cDNA Reverse Transcription Kit (Life Technologies, Carlsbad, CA, USA) was used for cDNA synthesis. Real-time quantitative RT-PCR reactions were performed as a TaqMan method on a ViiA 7 real-Time PCR System (Life Technologies), using TaqMan Fast Advanced Master Mix (Lifer Technologies) with specific primers on TaqMan Gene Expression Assays (Life Technologies) according to the manufacturer's manual. FAM-probed primers were used: COL1A1, Hs00164004_m1; α-SMA/ACTA2, Hs00426835_g1; fibroblast growth factor 2 (FGF2), Hs00266645_m1; Smad specific E3 ubiquitin protein ligase 2 (SMURF2), Hs00224203_m1; DDIT3, Hs00358796_g1; and glyceraldehyde 3-phosphate dehydrogenase (GAPDH), 4326317E for human in vitro cell assay. FAM-probed and TAMRA-quenched primers (Sigma-Aldrich Japan, Tokyo, Japan) were used: Col1a1, NM_007742; type I collagen alpha 2 (Col1a2), NM_007743; α-Sma/Acta2, NM_007392; and Gapdh, NM_008084 for mouse in vivo assay (S1 Table). The relative mRNA level of the target genes was calculated by the comparative threshold cycle (Ct) method using GAPDH (Gapdh) as an internal control for normalization. The fold change in the expression of each target gene was calculated by the following formula: relative quantification (RQ) = 2^-ΔΔCt.

[2] = body weight and tolerability on topical application in mice; settings: mouse; for tolerability: dermal topical application; for Body weight day 0 / Body weight day 7: topical, mean ± SE (n = 4-8)
Experimental: The experimenters were blinded to the treatments given to the animals and to the biochemical and histological analyses and the data analyses. Eight-week-old C3H/He male mice (weighing 23~28 g, Japan SLC, Inc., Hamamatsu, Japan) were used for all the in vivo experiments. […] These animals were maintained on a 12/12 h light/dark cycle with constant temperature (23 ± 2°C) under specific pathogen-free conditions. Standard chow diet and water were available ad libitum.
After acclimatization for 1 weeks, animals were randomly divided according to body weight and treated for 3 to 5 consecutive days as follows. The ear and dorsal skin of mouse were intradermally injected with 20 μL (100 μL, dorsal skin) PBS or 500 ng TGF-β in PBS under anaesthesia with 3–4% sevoflurane. Injections were continued in this manner daily for 3 days (days 0, 1 and 2) or 5 days (days 0, 1, 2, 3 and 4). Treatment protocol included the daily topical application of T-3833261 or HF cream on the ear (40 μL/ear) 1 h before injections into the ear. A vehicle without compounds was applied to control mice. The topical material contained sorbitan sesquioleate (50 g), lanolin (50 g), liquid paraffin (250 g), propylene glycol (50 g), 90% lactic acid (1.5 g), T-3833261 (0.1, 0.3 and 1 g) or HF (0.1 g), and distilled water as the rest material. Topical application of compound was continued for 7 days. Mice were euthanized by cervical dislocation under sevoflurane anesthesia at 3 or 5 days after last TGF-β injection and the ear surrounding the TGF-β injection site was harvested with 8 μm biopsy punch under anesthesia.

skin fibroblasts = experiment: Proline addition assay (α-SMA mRNA); assay type: cell-based, human; settings: proline 0.05, 0.2 and 1 mM; compound 1-300 nM; 24 h
Experimental: Total RNA was isolated from in vivo samples using ISOGEN II (Nippongene) according to the manufacturer's instructions. In vitro RNA samples were prepared as mentioned above. High Capacity cDNA Reverse Transcription Kit (Life Technologies, Carlsbad, CA, USA) was used for cDNA synthesis. Real-time quantitative RT-PCR reactions were performed as a TaqMan method on a ViiA 7 real-Time PCR System (Life Technologies), using TaqMan Fast Advanced Master Mix (Lifer Technologies) with specific primers on TaqMan Gene Expression Assays (Life Technologies) according to the manufacturer's manual. […] The relative mRNA level of the target genes was calculated by the comparative threshold cycle (Ct) method using GAPDH (Gapdh) as an internal control for normalization. The fold change in the expression of each target gene was calculated by the following formula: relative quantification (RQ) = 2^-ΔΔCt.
To evaluate the effect of proline addition on anti-fibrosis by each compound, the cells were allowed to adhere overnight before being replaced with serum-free FBM for 24 h. […] Then real-time quantitative RT-PCR analysis was conducted as mentioned above.

Row | SMILES | IC50 (human PRS) | expression of fibrosis-related genes (Col1a1, Col1a2, α-Sma) in mouse ear [1] | tolerability [2] | effect of proline addition on inhibition of α-SMA gene expression (skin fibroblasts) | activity on fibrotic gene expression relative to HF formulation ([1]; 0.1% formulation of T-3833261, topical, mouse ear) | Body weight day 0 ([2]; 0.01% cream) | Body weight day 7 ([2]; 0.01% cream) | Body weight day 0 ([2]; 0.03% cream) | Body weight day 7 ([2]; 0.03% cream) | Body weight day 0 ([2]; 0.1% cream) | Body weight day 7 ([2]; 0.1% cream) | body weight of the mice after one week of continuous topical application ([2]; topical cream)
1 | O=C(CC1NCCCC1O)Cn1cnc2cc(Br)c(Cl)cc2c1=O (stereo not shown) [HF, Halofuginone, reference compound] | 8.7 nM | prevented the skin fibrotic genes expression induced by TGF-β | well-tolerated | attenuated by adding proline to the medium | – | – | – | – | – | – | – | –
2 | Cn1cc(-c2cc(F)cc(CNC(=O)c3nccc4nc(C5CCCC5)[nH]c34)c2)cn1 [T-3833261, 2-Cyclopentyl-N-(3-fluoro-5-(1-methyl-1H-pyrazol-4-yl)benzyl)-3H-imidazo[4,5-c]pyridine-4-carboxamide] | 3.6 nM | reduced expression of these fibrotic genes in a dose-dependent manner | well-tolerated | proline addition did not affect the activity | comparable activity to a 0.01% HF formulation | 22.9 ± 0.8 g | 23.8 ± 0.5 g | 23.1 ± 0.6 g | 23.4 ± 0.4 g | 22.4 ± 0.4 g | 22.2 ± 0.5 g | did not change
